Test results: patent US20140271644A1, “COMBINATION/ADJUVANT THERAPY FOR WT-1-POSITIVE DISEASE” (Memorial Sloan-Kettering Cancer Center, priority 2013, published 2014)

What was measured:
[1] = system: BV173 human leukemia cells; test: Dasatinib plus ESKM in BV173 human leukemia xenograft NSG model; type: in vivo, NSG mice; conditions: after 4 weeks of therapy; dasatinib 40 then 20 mg/kg daily IP, stopped on day 11; antibody 100 μg twice a week
Procedure: (§1) In vivo efficacy of ESKM with TKIs was evaluated using NSG mice injected with HLA-A0201^+ leukemic cell line BV173. The protocol used for imatinib and dasatinib therapy in combination with ESKM consisted of injecting 3×10^6 cells per mouse via tail vein, luciferin imaging 6 days after injection to assess tumor engraftment, and initiation of therapy immediately after imaging on day 6. Luciferin imaging was used weekly to monitor tumor growth. The TKI is injected intraperitoneally daily (50 mg/kg for imatinib and 20-40 mg/kg for dasatinib.) The antibody is injected intravenously twice per week.

[2] = cited from earlier work
[3] = mouse, in vivo
Procedure: Three million BV173 human leukemia cells were injected IV by tail vein into NSG mice. […] Immediately after imaging on day 6, therapy was initiated with anti-WT-1 antibody ESKM 100 μg administered by intraperitoneal (IP) injection twice weekly. Dasatinib was also administered by IP injection at 40 mg/kg daily. […] Group A: No therapy; Group B: DMSO only (vehicle control); Group C: dasatinib treatment only; Group D: ESK treatment only; Group E: combination of both dasatinib daily and ESK twice weekly. […] The dose was decreased to 20 mg/kg. […] ESK antibody continued to be administered for the full 4 week treatment cycle. Tumor growth continued to be assessed by luminescence imaging weekly.
After 4 weeks of therapy, animals were imaged by fluorescent luciferin imaging, and the fluorescence was quantified using Living Image® software, quantifying mouse tumor burden.

[4] = system: BV173 human leukemia cells; test: Imatinib plus ESKM in BV173 human leukemia xenograft NSG model; type: in vivo, NSG mice; conditions: after 5 weeks of therapy; imatinib 50 mg/kg daily IP; antibody 100 μg twice a week
Procedure: as §1
Imatinib was also administered by IP injection at 50 mg/kg daily. Therapy continued for 5 weeks (10 doses of ESKM and 34 doses of imatinib per mouse). Group A: No therapy; Group B: imatinib treatment only; Group C: ESK treatment only; Group D: combination of both imatinib daily and ESK twice weekly. Tumor growth was assessed by luminescence imaging weekly, and clinical activity was assessed daily.
This allows for the quantification of mouse tumor burden. […] (FIG. 2)

[5] = system: BV173 cells; test: ADCC, chromium 51 release assay; type: cell-based, human; conditions: imatinib 1 μM, 5 μM or 10 μM, various E:T ratios, fresh BV173 cells
Procedure: ADCC is considered to be one of the major effector mechanisms of therapeutic mAb in humans. Evaluation of efficacy, therefore, begins with in vitro experiments measuring ADCC against BV173 cell line, derived from CML in blastic crisis. Fresh BV173 cells were used for ADCC target cells. WT-1 antibody or its isotype control human IgG1 was incubated at 750 ng/ml with target cells and fresh PBMCs at different effector:target (E:T) ratio for 6 hrs. Imatinib was added at concentrations of 0, 1, 5, and 10 μM. The supernatants were harvested and the cytotoxicity was measured by standard chromium 51 release assay.

Cc1nc(Nc2ncc(C(=O)Nc3c(C)cccc3Cl)s2)cc(N2CCN(CCO)CC2)n1 [dasatinib]
Tumor burden by luciferin imaging [1]: initially had clearance of tumor, but relapsed by week 4 of therapy | Solubility in aqueous solution [2]: not soluble in aqueous solution | Clinical condition of mice [3]: looked ill with significant weight loss | Discontinuation of therapy [3]: discontinued due to toxicity

Cc1ccc(NC(=O)c2ccc(CN3CCN(C)CC3)cc2)cc1Nc1nccc(-c2cccnc2)n1 [imatinib]
Tumor burden by luciferin imaging [4]: reduced tumor burden compared to control animals | Effect of imatinib on ADCC mediated by WT-1 antibody [5]: does not affect
